Measured values published in patent US9586905B2, “Benzoazepine derivative and medical use thereof” (SANWA KAGAKU KENKYUSHO CO., LTD., priority 2012, dated 2017).

Target: T1, human V2 receptor (Homo sapiens, UniProt P30518)
T1 construct: A DNA fragment containing a human V2 receptor code region; expressed in transfected cells
Test: cAMP production test in V2 receptor expression cell
Assay type: cell-based
Settings: for EC50: human V2 receptor expression cell, 30 minutes at room temperature, HTRF cAMP kit; for Emax: maximum reaction by 8-AVP assumed to be 100%
Procedure: Pharmacological Test (1) Preparation of Human V2 Receptor Expression Cell
A DNA fragment containing a human V2 receptor code region was inserted into an expression vector of a vertebrate cell. The expression vector was genetically introduced into an animal cell to have the human V2 receptor express in the surface of the cell. Since the expression vector could express a neo gene which functions as a G418 resistance marker, it was cultured in a G418-containing medium, thereby selectively obtaining a human V2 receptor stable expression cell.
(2) cAMP Production Test in V2 Receptor Expression Cell
The human V2 receptor expression cell, which was prepared in the above described method, was recovered and resuspended into an incubation buffer (F-12 medium, 20 mM HEPES), and 5 μl of the cell was then divided into a 384-well plate with a density of 15,000 cells/well. 5 μl of a compound solution or an 8-AVP ((Arg^8)-vasopressin) solution, which was diluted with an assay buffer (F-12 medium, 20 mM HEPES, 1 mM IBMX), (total 10 μl/well) was added to each well (final concentration: 15,000 cells/well, 500 μM IBMX, 1% dimethyl sulfoxide). After incubation at room temperature for 30 minutes, a cAMP production amount was measured using a commercially available HTRF cAMP kit (Cisbio Inc.) according to the described protocol. Excel Fit was used in order to find EC50 and Emax values of the test compound.

T1 sequence (P30518 whole entry, the tested form may be a part): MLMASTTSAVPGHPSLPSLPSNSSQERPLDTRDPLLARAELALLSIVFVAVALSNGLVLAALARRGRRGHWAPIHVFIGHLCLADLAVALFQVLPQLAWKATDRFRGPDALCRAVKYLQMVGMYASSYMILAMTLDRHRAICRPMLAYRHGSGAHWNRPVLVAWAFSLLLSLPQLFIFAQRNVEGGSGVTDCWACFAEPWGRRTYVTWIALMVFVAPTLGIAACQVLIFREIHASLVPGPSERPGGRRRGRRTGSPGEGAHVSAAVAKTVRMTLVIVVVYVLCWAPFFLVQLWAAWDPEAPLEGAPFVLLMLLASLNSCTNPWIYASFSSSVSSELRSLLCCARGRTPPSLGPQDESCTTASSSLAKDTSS

EC50 [nM] | Emax [%] | Structure (SMILES)
7.9 | 102 | COC(=O)C1(C)CCN(C(=O)c2ccc(N3CCCC3)cc2Cl)c2ccccc2C1 (racemic) [Example 31]
9.1 | 104 | CCCOc1ccc(C(=O)N2CCC(C)(C(=O)OC)Cc3ccccc32)c(Cl)c1 (racemic) [Example 32]
20 | 96 | COC(=O)C1(C)CCN(C(=O)c2ccc(-c3ncco3)cc2Cl)c2ccccc2C1 (racemic) [Example 33]
9.8 | 98 | COC(=O)C1(C)CCN(C(=O)c2ccc(-n3cccn3)cc2Cl)c2ccccc2C1 (racemic) [Example 34]
0.8 | 103 | COC(=O)C1Cc2ccccc2N(C(=O)c2ccc(N3CCCC3)cc2Cl)CC1C (racemic) [Example 42]
0.1 | 102 | COC(=O)C1(F)Cc2ccccc2N(C(=O)c2ccc(N3CCCC3)cc2Cl)CC1C (racemic) [Example 43]
0.5 | 102 | CC1(C(=O)O)CCN(C(=O)c2ccc(N3CCCC3)cc2Cl)c2ccccc2C1 (racemic) [Example 49, 1-[2-chloro-4-(pyrrolidine-1-yl)benzoyl)-4-methyl-2,3,4,5-tetrahydro-1H-benzo[b]azepine-4-carboxylic acid]
0.9 | 100 | CCCOc1ccc(C(=O)N2CCC(C)(C(=O)O)Cc3ccccc32)c(Cl)c1 (racemic) [Example 50, 1-(2-chloro-4-propoxybenzoyl)-4-methyl-2,3,4,5-tetrahydro-1H-benzo[b]azepine-4-carboxylic acid]
6 | 73 | CC1(C(=O)O)CCN(C(=O)c2ccc(-c3ncco3)cc2Cl)c2ccccc2C1 (racemic) [Example 51, 1-[2-chloro-4-(oxazol-2-yl)benzoyl]-4-methyl-2,3,4,5-tetrahydro-1H-benzo[b]azepine-4-carboxylic acid]
3.9 | 85 | CC1(C(=O)O)CCN(C(=O)c2ccc(-n3cccn3)cc2Cl)c2ccccc2C1 (racemic) [Example 52, 1-[2-chloro-4-(1H-pyrazol-1-yl)benzoyl]-4-methyl-2,3,4,5-tetrahydro-1H-benzo[b]azepine-4-carboxylic acid]
0.2 | 101 | Cc1ccn(-c2ccc(C(=O)N3C[C@@H](C)C(C)(C(=O)O)Cc4ccccc43)c(C)c2)n1 (mixture of isomers) [Example 55, (3S)-3,4-dimethyl-1-[2-methyl-4-(3-methyl-1H-pyrazol-1-yl)benzoyl]-2,3,4,5-tetrahydro-1H-benzo[b]azepine-4-carboxylic acid]
0.1 | 102 | C[C@@H]1CN(C(=O)c2ccc(N3CCCC3)cc2Cl)c2ccccc2CC1C(=O)O (mixture of isomers) [Example 56, (3S)-1-[2-chloro-4-(pyrrolidine-1-yl)benzoyl]-3-methyl-2,3,4,5-tetrahydro-1H-benzo[b]azepine-4-carboxylic acid]
0.2 | 102 | C[C@@H]1CN(C(=O)c2ccc(N3CCCC3)cc2Cl)c2ccccc2CC1(F)C(=O)O (mixture of isomers) [Example 57, (3R)-1-[2-chloro-4-(pyrrolidine-1-yl)benzoyl]-4-fluoro-3-methyl-2,3,4,5-tetrahydro-1H-benzo[b]azepine-4-carboxylic acid]
0.53 | 101 | Cc1cc(N2CCC(C)C2)ccc1C(=O)N1CCC(C)(C(=O)NCC(N)=O)Cc2ccccc21 (racemic) [Example 69]
1.9 | 100 | CC(C)C(NC(=O)C1(C)CCN(C(=O)c2ccc(OCCCF)cc2Cl)c2ccccc2C1)C(N)=O (racemic) [Example 73]
0.9 | 100 | Cc1nnc(NC(=O)C2(C)CCN(C(=O)c3ccc(N4CCCC4)cc3Cl)c3ccccc3C2)o1 (racemic) [Example 79]
2.8 | 101 | CCNC(=O)CNC(=O)C1(C)CCN(C(=O)c2ccc(N3CCCC3)cc2Cl)c2ccccc2C1 (racemic) [Example 80]
6.6 | 100 | CCN(CC)C(=O)CNC(=O)C1(C)CCN(C(=O)c2ccc(N3CCCC3)cc2Cl)c2ccccc2C1 (racemic) [Example 81]
1.1 | 101 | CC1(C(=O)NCc2nnco2)CCN(C(=O)c2ccc(N3CCCC3)cc2Cl)c2ccccc2C1 (racemic) [Example 82]

EC50 [nM] | Emax [%] | Structure (SMILES)
3.4 | 100 | CCCOc1ccc(C(=O)N2CCC(C)(C(=O)NC(C)CO)Cc3ccccc32)c(Cl)c1 (racemic) [Example 83]
2.5 | 100 | CCCOc1ccc(C(=O)N2CCC(C)(C(=O)NCC(N)=O)Cc3ccccc32)c(Cl)c1 (racemic) [Example 84]
15 | 94 | CC(CO)NC(=O)C1(C)CCN(C(=O)c2ccc(-c3ncco3)cc2Cl)c2ccccc2C1 (racemic) [Example 85]
17 | 88 | CC1(C(=O)NCC(N)=O)CCN(C(=O)c2ccc(-c3ncco3)cc2Cl)c2ccccc2C1 (racemic) [Example 86]
9.5 | 97 | CC(CO)NC(=O)C1(C)CCN(C(=O)c2ccc(-n3cccn3)cc2Cl)c2ccccc2C1 (racemic) [Example 87]
8.1 | 93 | CC1(C(=O)NCC(N)=O)CCN(C(=O)c2ccc(-n3cccn3)cc2Cl)c2ccccc2C1 (racemic) [Example 88]
0.41 | 101 | Cc1cc(N2CCC(C)C2)ccc1C(=O)N1CCC(F)(C(N)=O)Cc2ccccc21 (racemic) [Example 94]
0.99 | 102 | Cc1cc(N2CCC(C)C2)ccc1C(=O)N1CCC(F)(C(=O)NCC(N)=O)Cc2ccccc21 (racemic) [Example 95]
0.56 | 102 | Cc1ccn(-c2ccc(C(=O)N3CC(C)C(C)(C(=O)NCC(N)=O)Cc4ccccc43)c(C)c2)n1 (racemic) [Example 97]
1 | 101 | CC(CO)NC(=O)C1Cc2ccccc2N(C(=O)c2ccc(N3CCCC3)cc2Cl)CC1C (racemic) [Example 98]
0.4 | 102 | CC1CN(C(=O)c2ccc(N3CCCC3)cc2Cl)c2ccccc2CC1C(=O)NCC(N)=O (racemic) [Example 99]
3 | 100 | CC(CO)NC(=O)C1(F)Cc2ccccc2N(C(=O)c2ccc(N3CCCC3)cc2Cl)CC1C (racemic) [Example 100]
1.1 | 102 | CC1CN(C(=O)c2ccc(N3CCCC3)cc2Cl)c2ccccc2CC1(F)C(=O)NCC(N)=O (racemic) [Example 101]
1.4 | 102 | COC(=O)C1(C)CCN(C(=O)c2ccc(-n3ccc(C)n3)cc2C(F)(F)F)c2ccccc2C1 (single isomer, unassigned) [Example 35]
0.06 | 101 | COC(=O)C1(F)CCN(C(=O)c2ccc(N3CCCC3)cc2C)c2ccccc2C1 (single isomer, unassigned) [Example 38]
0.34 | 102 | Cc1cc(N2CCCC2)ccc1C(=O)N1CCC(C)(C(=O)O)Cc2ccccc21 (single isomer, unassigned) [Example 45, 4-methyl-1-[2-methyl-4-(pyrrolidine-1-yl)benzoyl]-2,3,4,5-tetrahydro-1H-benzo[b]azepine-4-carboxylic acid]
0.28 | 102 | Cc1cc(N2CCCC2)ccc1C(=O)N1CCC(F)(C(=O)O)Cc2ccccc21 (single isomer, unassigned) [Example 54, 4-fluoro-1-[2-methyl-4-(pyrrolidine-1-yl)benzoyl]-2,3,4,5-tetrahydro-1H-benzo[b]azepine-4-carboxylic acid]
0.74 | 102 | Cc1cc(N2CCCC2)ccc1C(=O)N1CCC(C)(C(=O)NC(C)C(N)=O)Cc2ccccc21 (single isomer, unassigned) [Example 68]
0.99 | 102 | CC(NC(=O)C1(C)CCN(C(=O)c2ccc(OCC(F)(F)F)cc2Cl)c2ccccc2C1)C(N)=O (single isomer, unassigned) [Example 76]
